Test: Storage stability of the solid in a refrigerator (HPLC assay and purity)
Assay type: physicochemical
Settings: for Assay (HPLC) / Purity (HPLC): solid stored at 2° C. to 8° C.
Description: This solid was stored at a temperature from 2° C. to 8° C. in a refrigerator. Thereby the following stability dates were obtained for this solid: […]

Row | Assay (HPLC) (time 0 months) | Purity (HPLC) (time 0 months) | Assay (HPLC) (time 1 month) | Purity (HPLC) (time 1 month) | Assay (HPLC) (time 2 months) | Purity (HPLC) (time 2 months) | Assay (HPLC) (time 3 months) | Purity (HPLC) (time 3 months) | Assay (HPLC) (time 6 months) | Purity (HPLC) (time 6 months) | Assay (HPLC) (time 12 months) | Purity (HPLC) (time 12 months) | Assay (HPLC) (time 9 months) | Purity (HPLC) (time 9 months) | Structure (SMILES) | Stability of the solid compared with crystalline (6RS)-folinic acid (general statement in words)
1 | 99.0% | 99.2% | 98.5% | 99.0% | 98.1% | 98.9% | 98.9% | 98.9% | 98.1% | 98.4% | 97.8% | 97.2%. |  |  | Nc1nc2c(c(=O)[nH]1)N(C=O)[C@@H](CNc1ccc(C(=O)N[C@@H](CCC(=O)O)C(=O)O)cc1)CN2 [Example 2, (6S)-N(5)-formyl-5,6,7,8-tetrahydrofolic acid] | stability comparable with the crystalline (6RS)-folinic acid
2 | 99.4% | 99.78% |  |  |  |  | 99.0% | 99.79% | 99.1% | 99.75% | 99.9% | 99.79%. | 100.2% | 99.82% | Nc1nc2c(c(=O)[nH]1)N(C=O)C(CNc1ccc(C(=O)N[C@@H](CCC(=O)O)C(=O)O)cc1)CN2 (mixture of isomers) [Example 1, (6RS)-N(5)-formyl-5,6,7,8-tetrahydrofolic acid] | 

— patent US20080153849A1, “Process for the Preparation of Crystalline (6Rrs)-N(5)-Formyl-5,6,7,8-Tetrahydrofolic Acid” (priority 2004, published 2008)
